pIC50: −log10 of the molar value. Where no end group is shown, it is not given here.
Tests used:
MPO [1] = molecular target: T1, MPO (Homo sapiens, UniProt P05164); test: MPO inhibitor screening assay kit, chlorination assay; type: biochemical; conditions: APF substrate, synthesized peptides
T1 construct: purchased Abnova, Taiwan
T1 sequence (P05164 49-745): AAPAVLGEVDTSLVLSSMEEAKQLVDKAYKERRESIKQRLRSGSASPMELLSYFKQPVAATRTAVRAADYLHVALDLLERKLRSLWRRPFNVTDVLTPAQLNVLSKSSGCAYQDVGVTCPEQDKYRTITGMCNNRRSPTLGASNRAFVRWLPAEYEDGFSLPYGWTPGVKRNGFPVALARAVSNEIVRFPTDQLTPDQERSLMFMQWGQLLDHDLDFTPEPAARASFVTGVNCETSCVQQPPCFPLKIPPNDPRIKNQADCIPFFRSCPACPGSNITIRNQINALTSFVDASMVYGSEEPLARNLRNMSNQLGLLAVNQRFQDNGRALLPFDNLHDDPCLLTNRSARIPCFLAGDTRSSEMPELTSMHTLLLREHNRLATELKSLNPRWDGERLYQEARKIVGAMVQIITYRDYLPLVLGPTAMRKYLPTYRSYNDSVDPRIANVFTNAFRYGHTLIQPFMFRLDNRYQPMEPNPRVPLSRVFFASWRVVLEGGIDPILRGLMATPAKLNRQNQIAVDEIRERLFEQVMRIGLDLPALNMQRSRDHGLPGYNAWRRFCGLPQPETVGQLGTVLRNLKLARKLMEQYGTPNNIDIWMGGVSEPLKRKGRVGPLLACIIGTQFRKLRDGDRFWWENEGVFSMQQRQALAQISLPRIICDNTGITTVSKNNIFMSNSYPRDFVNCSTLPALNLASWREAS
Description: (§1) The inhibitory effect of peptides on MPO was estimated using an MPO inhibitor screening assay kit (Abnova, Taiwan), which was used to assess in both the peroxidation and chlorination activities of MPO. Peroxidation assay utilizes the peroxidase component of MPO. During the reaction, hydrogen peroxide reacts with 10-acetyl-3,7-dihydroxyphenoxazine (ADHP) to yield resorufin, a highly fluorescent compound. The chlorination assay utilizes non-fluorescent 2-[6-(4-aminophenoxy)-3-oxo-3H-xanthen-9-yl]-benzoic acid (APF), which is selectively cleaved by hypochlorite to produce fluorescein. The 4-aminobenzhydrazide was used as positive control. The MPO inhibitory activity was determined according to the kit instructions.

MPO [2] = molecular target: T1, MPO; test: MPO inhibitor screening assay kit, peroxidation assay; type: biochemical; conditions: ADHP substrate, synthesized peptides
Description: as §1

pIC50 (MPO [1])	pIC50 (MPO [2])	Substance
4.49	4.75	ACGSDGK [ACGSDGK]
< 3.30	< 3.30	DASHGHSG
3.53	< 3.30	DVSDLDAD
< 3.30	< 3.30	GDAFDKA [GDAFDKA]
3.91	< 3.30	GELALKD [GELALKD]
3.97	4.39	KFCSGHA [KFCSGHA]

Reference: PMC9104108, “Purification and Identification of Novel Myeloperoxidase Inhibitory Antioxidant Peptides from Tuna (Thunnas albacares) Protein Hydrolysates” (Molecules, 2022)
